# Data reported in patent US20120309699A1, “COMPOUNDS HAVING ANTI-INFLAMMATORY ACTIVITY” (Consejo Superior de Investigaciones Cientificas (CSIC), priority 2009, published 2012).
# “Also recorded” adds a separate entry of the source.
# What was measured:
# C57BL/6 mice = experiment: DSS (sodium dextran sulfate) model for intestinal inflammation: colon length, weight, DAI, appearance, colonic architecture; assay type: in vivo; settings: after 1% DSS for 8 days; HED 10 mg
# Protocol: (§1) A model for intestinal inflammation based on the administration of DSS (sodium dextran sulfate) to C57BL/6 mice was used. At the present time there is no consensus about which overall is the best model for experimental colitis. The DSS model has been widely used because it has clinical, morphological and analytical characteristics which up to a point are similar to those specific to patients with ulcerative colitis or Crohn's disease.
# (§2) The in vivo inflammation test was carried out using duplicates separated by a number of months. In each test each group of animals (n=8) was fed a standard diet supplemented with 2.3 mg/day/kg (animal weight) of each of the compounds, depending upon the group. This dose assumes the ingestion of 0.05 mg/day (50 μg/day) per mouse (having a mean weight of 22 grams). This dose extrapolated to a human being is equivalent to 10 mg in an adult weighing 70 kg; using the formula HED (human equivalent dose)=animal dose in mg/kg×(animal weight kg/human weight in kg)^0.33.
# (§3) In each test the mice were fed for 3 weeks during which 1% DSS was included in their drink. The DSS was maintained for 8 days (and the same food as from the start). Then the DSS was withdrawn and the animals were allowed to recover for another 6 days (again with the same food).
# Groups included in the investigation: control (standard food), control-DSS, DSS-resveratrol (RES), DSS-piceid (PIC), DSS-resveratrol-diglucoside (DIGLUC), DSS-piceid-butyrate (BUT), DSS-piceid-octanoate (OCT).
# • Monitoring of weight, food and drink ingestion. The mice in all groups were individually monitored, with weight, quantity of food ingested and water drunk each day being monitored throughout the experimental test. • Blood and water in feces. The water content of feces, as an indication of diarrhea, was evaluated using the difference in weight following evaporation in a stove. Blood was measured using reactive strips based on the guaiacol-peroxidase reaction (HealthCare Diagnosis Inc.). The samples were diluted 1:50 in saline solution and applied to the reactive strips. After 60 sec the color was compared with the template provided by the manufacturer. The reaction was measured using a scale from 0 (negative result) to 4 (most intense color change). • Length of colon. After sacrifice the colon was obtained from each mouse, extended and measured. Samples of the colonic mucosa for various tests mentioned below were obtained by scraping. • Myeloperoxidase activity in colonic mucosa. This was evaluated by spectrophotometry at 460 nm using O-dianisidine reagent and hydrogen peroxide. The change in absorbance at 460 nm was monitored over 10 minutes in a V-630 spectrophotometer (Jasco, Tokyo, Japan). MPO activity was expressed as mU of activity/mg of fresh tissue, comparing the increase in absorbance with a standard straight line obtained using leukocyte myeloperoxidase (Sigma). • Prostaglandins in colonic mucosa. Levels of PGE2 were measured in colonic mucosa homogenates using an immunoenzyme method using a Cayman Chem. kit (USA). • “Antibody array”. The “antibody array” kit from RayBiotech (“RayBio Mouse Inflammation Antibody Array 1”) was used to determine cytokines in colonic tissue samples. The “RayBio Mouse inflammation antibody arrays” are a fast and accurate system for determining the expression profile of multiple cytokines (in this case 40) in a very sensitive way. The sensitivity is 100 times greater than that of the ELISA method. The measurement was made in duplicate following the manufacturer's instructions. Membranes were blocked with blocking buffer and then incubated with 300 μg of protein for 2 hours. Finally the membranes were incubated with a cocktail of antibodies conjugated with biotin and then radish peroxidase marked with streptavidin. The signal was detected by chemoluminescence. Images were captured using a CCD camera fitted to a Biorad Chemidoc XRS imaging station. Signal intensities (densitometry) were analyzed using ScanAlyze software. […]
# COX-1 = COX-1 (Homo sapiens, UniProt P23219); settings: cited from earlier work
# Chain of COX-1 (P23219 24-599): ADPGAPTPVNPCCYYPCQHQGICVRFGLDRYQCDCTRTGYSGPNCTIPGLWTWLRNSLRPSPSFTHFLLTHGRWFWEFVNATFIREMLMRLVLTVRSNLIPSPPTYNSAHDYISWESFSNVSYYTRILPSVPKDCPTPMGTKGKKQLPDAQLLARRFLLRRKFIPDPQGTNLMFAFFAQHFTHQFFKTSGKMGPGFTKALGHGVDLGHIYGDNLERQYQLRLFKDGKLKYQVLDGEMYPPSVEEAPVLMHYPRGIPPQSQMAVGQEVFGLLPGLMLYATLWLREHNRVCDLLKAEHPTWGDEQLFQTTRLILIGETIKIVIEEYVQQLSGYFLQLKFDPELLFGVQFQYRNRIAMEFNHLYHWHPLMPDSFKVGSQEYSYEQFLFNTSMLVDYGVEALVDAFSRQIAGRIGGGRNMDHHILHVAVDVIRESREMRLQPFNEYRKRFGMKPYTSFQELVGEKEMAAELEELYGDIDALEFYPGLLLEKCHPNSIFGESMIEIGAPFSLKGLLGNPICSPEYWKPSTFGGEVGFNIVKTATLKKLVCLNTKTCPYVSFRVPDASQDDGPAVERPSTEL
# [1] = system: pathogenic bacteria (E. coli O157, Salmonella and Listeria monocytogenes Scott A); experiment: Adhesion of pathogenic bacteria to HT-29 cell cultures; assay type: cell-based, human; settings: HT-29, 25 μM/well, vs positive control C+
# Protocol: (§4) We used two cell models for colon cancer to evaluate the anti-adhesion capacity of compounds derived from resveratrol against pathogenic bacteria in food: Caco-2 (a model frequently used to measure the adhesion of microorganisms) and HT-29 (a model frequently used to measure immune response to infections by enteropathogens). Caco-2 and HT-29 cells were grown in EMEM and DMEM respectively, for which 24 well plates were used at 37° C., 5% CO2, 95% air until a single layer of confluent epithelium formed (cell concentration per well 2×10^5 and 6×10^5 respectively). Pathogenic bacteria (E. coli O157, Salmonella and Listeria monocytogenes Scott A) were placed in contact with the various compounds derived from resveratrol for 1 hour and subsequently the bacteria together with the different compounds in a concentration of 25 μM/well were inoculated on the cell cultures, incubating the plates for 2 hours at 37° C., 5% CO2, 95% air. The plates were then washed 3 times with 1 ml of sterile PBS and 1 ml of distilled water with 20% of glycerol was added, and they were frozen at −70° C. to lyse the epithelial cells. […] Concentrations of the various derivatives tested were detected in the digestive tracts of experimental animals and therefore the test lay within the range of physiologically achievable concentrations.
# haptoglobin = experiment: Systemic inflammation marker haptoglobin (DSS model); assay type: in vivo, mice; settings: vs DSS group; HED 10 mg
# Protocol: as §1, §2, §3
# (§5) • Monitoring of weight, food and drink ingestion. The mice in all groups were individually monitored, with weight, quantity of food ingested and water drunk each day being monitored throughout the experimental test. • Blood and water in feces. The water content of feces, as an indication of diarrhea, was evaluated using the difference in weight following evaporation in a stove. Blood was measured using reactive strips based on the guaiacol-peroxidase reaction (HealthCare Diagnosis Inc.). […] The reaction was measured using a scale from 0 (negative result) to 4 (most intense color change). • Length of colon. After sacrifice the colon was obtained from each mouse, extended and measured. […] This was evaluated by spectrophotometry at 460 nm using O-dianisidine reagent and hydrogen peroxide. The change in absorbance at 460 nm was monitored over 10 minutes in a V-630 spectrophotometer (Jasco, Tokyo, Japan). MPO activity was expressed as mU of activity/mg of fresh tissue, comparing the increase in absorbance with a standard straight line obtained using leukocyte myeloperoxidase (Sigma). • Prostaglandins in colonic mucosa. Levels of PGE2 were measured in colonic mucosa homogenates using an immunoenzyme method using a Cayman Chem. kit (USA). • “Antibody array”. […] The signal was detected by chemoluminescence. […] Signal intensities (densitometry) were analyzed using ScanAlyze software. […] The changes in cytokine levels were expressed as mean±SD in arbitrary density units. […]
# E. coli = experiment: Microbiota counts in feces: E. coli; assay type: in vivo, mice; settings: after administration of DSS; HED 10 mg
# Protocol: as §1
# as §2, with “kg)^0.33. […]” for “kg)^0.33.”
# (§6) • Monitoring of weight, food and drink ingestion. The mice in all groups were individually monitored, with weight, quantity of food ingested and water drunk each day being monitored throughout the experimental test. • Blood and water in feces. The water content of feces, as an indication of diarrhea, was evaluated using the difference in weight following evaporation in a stove. Blood was measured using reactive strips based on the guaiacol-peroxidase reaction (HealthCare Diagnosis Inc.). […] The reaction was measured using a scale from 0 (negative result) to 4 (most intense color change). • Length of colon. After sacrifice the colon was obtained from each mouse, extended and measured. […] This was evaluated by spectrophotometry at 460 nm using O-dianisidine reagent and hydrogen peroxide. The change in absorbance at 460 nm was monitored over 10 minutes in a V-630 spectrophotometer (Jasco, Tokyo, Japan). […] Levels of PGE2 were measured in colonic mucosa homogenates using an immunoenzyme method using a Cayman Chem. kit (USA). • “Antibody array”. […] The signal was detected by chemoluminescence. […]
# [2] = system: pathogenic bacteria (E. coli O157, Salmonella and Listeria monocytogenes Scott A); experiment: Adhesion of pathogenic bacteria to Caco-2 cell cultures; assay type: cell-based, human; settings: Caco-2, 25 μM/well, vs positive control C+
# Protocol: as §4
# COX-2 = settings: see ES2266271; cited from earlier work
# fibrinogen = experiment: Systemic inflammation marker fibrinogen (DSS model); assay type: in vivo, mice; settings: vs DSS group; HED 10 mg
# Protocol: as §1, §2, §3, §5
# bifidobacteria = experiment: Microbiota counts in feces: bifidobacteria; assay type: in vivo, mice; settings: HED 10 mg
# Protocol: as §1, §2, §3, §5
# [3] = Time of arrival and concentration of resveratrol in the colon of healthy mice; settings: gastric probang, 84 mg/kg resveratrol
# enterobacteria = experiment: Microbiota counts in feces: enterobacteria; assay type: in vivo, mice; settings: after administration of DSS; HED 10 mg
# Protocol: as §1
# as §2, with “kg)^0.33. […]” for “kg)^0.33.”
# as §6
Compound,General appearance of the mice (C57BL/6 mice),Enzyme activity of COX-1 (COX-1),Adhesion of pathogenic bacteria to intestinal epithelium [1],Blood haptoglobin levels (haptoglobin),E. coli count in feces (E. coli),Adhesion of pathogenic bacteria to the intestinal epithelium [2],Transcription of COX-2 (COX-2),Blood fibrinogen levels (fibrinogen),Bifidobacteria count in feces (bifidobacteria; after administration of DSS),Time of maximum resveratrol in the colon [3],Enterobacteria count in feces (enterobacteria),"Bifidobacteria count in feces (bifidobacteria; 3 weeks of supplemented diet, prior to DSS)"
"OC[C@H]1O[C@@H](Oc2cc(O)cc(/C=C/c3ccc(O)cc3)c2)[C@H](O)[C@@H](O)[C@@H]1O [PIC, resveratrol-3-O-glucoside, reference compound]",OCT (D)≈BUT (C)>>RES≈DIGLUC≈PIC (B)>>control-DSS (A),–,–,–,–,–,–,–,–,–,–,–
"Oc1ccc(/C=C/c2cc(O)cc(O)c2)cc1 [RES, trans-resveratrol, reference compound]",OCT (D)≈BUT (C)>>RES≈DIGLUC≈PIC (B)>>control-DSS (A); also recorded: better appearance than the control-DSS,inhibits the enzyme activity of COX-1,reduced the adhesion,clear tendency to improvement,clear reduction,reduced the adhesion,inhibits the transcription of COX-2,clear tendency to improvement,slightly higher counts,around 5 hours,clear reduction,–
"OC[C@H]1O[C@@H](Oc2cc(/C=C/c3ccc(O)cc3)cc(O[C@@H]3O[C@H](CO)[C@@H](O)[C@H](O)[C@H]3O)c2)[C@H](O)[C@@H](O)[C@@H]1O [DIGLUC, trans-resveratrol-3,5-di-O-β-D-glucopyranoside]",OCT (D)≈BUT (C)>>RES≈DIGLUC≈PIC (B)>>control-DSS (A),–,–,clear tendency to improvement,–,–,–,most notable differences,–,–,–,highest count
